These results are taken from US20140024132A1, “METHODS AND SYSTEMS USING INTEGRATED METABOLOMICS AND PHARMACOKINETICS FOR MULTI-COMPONENT DRUG EVALUATION” (priority 2010, published 2014).

Series [1] in a line: Urine levels of absorbed (bioavailable) Pu-erh tea components after a single Pu-erh tea intake, UPLC-QTOFMS and GC-TOFMS profiling. It counts as in vivo, human. Particulars: for FC (fold change): absorbed Pu-erh tea metabolite, human urine. How it is done:
Participants received a dose equivalent to 5 cups of commercially prepared tea. Twenty healthy men (n=10) and women (n=10) whose mean age was 25±2 years (range 22-32) were enrolled in this study, and written consent was obtained from each participant.
Volunteers were provided with identical standard meals three times per day during the experiment (e.g., breakfast: milk and bread; lunch: beef and vegetables; dinner: pork and cabbage). […] Urine samples were stored at −80° C. before analysis.
The tea infusion used in this study and the collected urine samples were centrifuged at 13,000 rpm for 10 min at 4° C., and the resulting supernatants were immediately stored at −80° C. pending UPLC-QTOFMS analysis. Ultrapure water (500 μL) was added to the tea or urine sample (500 μL) and vortexed for 1 min. The sample was then filtered through a syringe filter (0.22 μm) for UPLC-QTOFMS analysis.; incorporated by reference herein in its entirety.
The tea infusion (100 μL) described in Example 2 and urine samples (100 μL) were spiked with two internal standard solutions (10 μL-2-chlorophenylalanine in water, 0.3 mg/ml; 10 μL heptadecanoic acid in methanol, 1 mg/mL), and vortexed for 10 seconds. The mixed solution was extracted with 300 μL of methanol:chloroform (v/v 3:1) and vortexed for 30 seconds. After storing for 10 min at −20° C., the samples were centrifuged at 10,000 rpm for 10 min. An aliquot of the 300 μL supernatant was transferred to a glass sampling vial to vacuum dry at room temperature. The residue was derivatized using a two-step procedure. First, 80 μL methoxyamine (15 mg/mL in pyridine,) was added to the vial and kept at 30° C. for 90 min followed by 80 μL BSTFA (1% TMCS) at 70° C. for 60 min. See protocols set forth in Ni et al., FEBS Lett. 581: 707-711 (2007).; incorporated by reference herein in its entirety.
UPLC: Tea and urine metabolite profiling were performed using a Waters ACQUITY UPLC system equipped with a binary solvent delivery manager and a sample manager (Waters Corporation, Milford, Mass., USA), coupled to a Micromass Q-TOF Premier mass spectrometry equipped with an electrospray interface (Waters Corporation, Milford, M A, USA). Chromatographic separations were performed on a 2.1×100 mm 1.7 μm ACQUITY BEH C18 chromatography column. The column was maintained at 45° C. and eluted with a 1-99% acetonitrile (0.1% (v/v) formic acid)-aqueous formic acid (0.1% (v/v) formic acid) gradient over 10 min at a flow rate of 0.40 mL/min. A 5 μL aliquot sample was injected onto the column.
Mass Spectrometry: The mass accuracy analysis and detailed MS parameters were optimized according to our prior studies, which is incorporated herein in its entirety. During metabolite profiling experiments, centroid data was acquired for each sample from 50 to 1000 Da with a 0.10 sec scan time and a 0.01 sec interscan delay over a 10 min analysis time. A metabonomics MS System Test Mixture including acetaminophen, tolbutamide, 3′-azido-3′-deoxythymidine, reserpine, verapamil and coumarin was used as chromatographic reference and mass accuracy quality control. This test mixture was injected every ten injections. The mass spectrometer was operated in positive ion mode. The desolvation temperature was set to 400° C. at a flow rate of 700 L/hr and source temperature of 100° C. The capillary and cone voltages were set to 3500 and 45 V, respectively. The data was collected between 50-1000 m/z with alternating collision energy, at 5 eV for precursor ion information generation and a collision profile from 10-40 eV for fragment ion information. The Q-TOF Premier™ was operated in v mode with 10,000 mass resolving power. Data were centroided during acquisition using independent reference lock-mass ions via the LockSpray™ interface to ensure mass accuracy and reproducibility. Leucine-enkephalin was used as the reference compound at a concentration of 50 pg/μL and an infusion flow rate of 0.05 mL/min.

Series [2] in a line: Pearson correlation of absorbed, biotransformed plant metabolites and altered endogenous metabolites in urine. The settings on record: ρ≧0.7 or ρ≦−0.7, urine, FIG. 13. Type of series: in vivo, human.
Protocol: Similarly, in order to study the relationship of dynamic response of metabolites along with the time course, mean value of each metabolite was calculated at each time point (0 h→1 h→2 h→3 h→6 h→12 h→24 h). A new metabolite vector with 7 mean values calculated at 7 different time points, representing the average response, was constructed and the Pearson correlation coefficients were calculated similarly with the pair-wise comparison of metabolites.

With `Cn1c(=O)c2c(ncn2C)n(C)c1=O` [Caffeine], the “FC (fold change)” value came to 454.37 in series [1] (1 h post-dose vs pre-dose); 573.74 in series [1] (3 h post-dose vs pre-dose); 437.21 in series [1] (6 h post-dose vs pre-dose); 277.02 in series [1] (9 h post-dose vs pre-dose); 160.06 in series [1] (12 h post-dose vs pre-dose); 46.28 in series [1] (24 h post-dose vs pre-dose). In addition, the “time at which concentration reached maximum levels in urine” value in series [1] (absorbed plant metabolites, after oral administration of Pu-erh tea, FIG. 10A) was found to be 1 h. In addition, the “time at which cleared away from urine” value in series [1] (absorbed plant metabolites, post-dose, FIG. 10A) is 9 h. Besides, the “correlation with its biodegradated metabolites paraxanthine, theophylline, hippuric acid and 3-hydroxyphenylacetic acid” value in series [2] is reported as “positively corrected”.
